Measurements taken from patent US10463644B2, “Uses of sesquiterpene lactone compounds and their derivatives in drugs preparation” (ACCENDATECH, priority 2013, dated 2019).
Where two headings read alike, the source gives them in different places.

Tests used:
[1] = tested on: IL-1β secreted by synoviocyte; assay: Content of IL-1β in culture supernatant of synoviocyte of RA model rats given test compound; assay type: in vivo; conditions: rat RA model, dose 30 mg/kg.2d; normal control 0.16 ± 0.034, NaCl 0.49 ± 0.136
Outline: (§1)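 Content of secreted TNF-α, PGE2 and IL-1β measured in supernatants of synoviocytes cultured from RA model rats. Animals dosed at 30 mg/kg.2d; normal control and NaCl groups included.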

cancer cells = assay: Survival rate of cancer cells after test compound is added (flow cytometry, Annexin V-FITC/PI, clinical specimen); assay type: cell-based, patient; conditions: Homo sapiens, 18 h, read-out: Survival rate (%) All cells (Stem cells and ordinary cells)
Outline: (§2)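 Mononuclear cells from fresh or cryopreserved clinical samples, isolated by Ficoll gradient and held in serum-free IMDM (1×10^6/mL), received compound for 18 h. After labelling with marker antibodies (CD34+CD38+ for AML), Annexin V-FITC and PI staining was analysed by flow cytometry.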

[2] = tested on: TNF-α secreted by synoviocyte; assay: Content of TNF-α in culture supernatant of synoviocyte of RA model rats given test compound; assay type: in vivo; conditions: rat RA model, dose 30 mg/kg.2d; normal control 0.38 ± 0.027, NaCl 0.74 ± 0.098
Outline: as §1

cancer stem cells = assay: Survival rate of cancer stem cells after test compound is added (flow cytometry, Annexin V-FITC/PI, clinical specimen); assay type: cell-based, patient; conditions: Homo sapiens, 18 h
Outline: as §2

[3] = tested on: PGE2 secreted by synoviocyte; assay: Content of PGE2 in culture supernatant of synoviocyte of RA model rats given test compound; assay type: in vivo; conditions: rat RA model, dose 30 mg/kg.2d; normal control 8.34 ± 1.29, NaCl 32.44 ± 10.32
Outline: as §1

[4] = Head and neck squamous cell carcinomas

How did the “Content of IL-1β in culture supernatant of synoviocyte (x ± s)” value [1] turn out when `CCOC(=O)[C@@H]1CCCN1C[C@@H]1C(=O)O[C@H]2[C@H]1CCC1(CC1)[C@@H]1CCC3(CC3)[C@H]21` [Compound 29] was run?
Its value is 0.34 ± 0.039 ng/mL.

What about the viability at 10 µM (cancer cells; AML) of the same compound?
Its viability at 10 µM is 91%.

And the viability at 20 µM (cancer cells; AML)?
The viability at 20 µM was 88%.

What about the viability at 10 µM (cancer cells; Brain glioma) of the same compound?
The viability at 10 µM was 89%.

And the viability at 20 µM (cancer cells; Brain glioma)?
Its viability at 20 µM is 86%.

What about the viability at 10 µM (cancer cells; Brain tumor) of the same compound?
The viability at 10 µM was 94%.

What about the viability at 20 µM (cancer cells; Brain tumor) of the same compound?
The viability at 20 µM was 87%.

And the viability at 10 µM (cancer cells; Breast cancer)?
Its viability at 10 µM is 88%.

What about the viability at 20 µM (cancer cells; Breast cancer) of the same compound?
Its viability at 20 µM is 81%.

And the viability at 10 µM (cancer cells; CLL)?
The viability at 10 µM was 88%.

What about the viability at 20 µM (cancer cells; CLL) of the same compound?
The viability at 20 µM was 85%.

And the viability at 10 µM (cancer cells; CML)?
The viability at 10 µM was 87%.

And the viability at 20 µM (cancer cells; CML)?
The viability at 20 µM was 83%.

What about the viability at 10 µM (cancer cells; Children hepatoblastoma) of the same compound?
Its viability at 10 µM is 92%.

And the viability at 20 µM (cancer cells; Children hepatoblastoma)?
Its viability at 20 µM is 89%.

And the viability at 10 µM (cancer cells; Colon adenocarcinoma)?
The viability at 10 µM was 87%.

What about the viability at 20 µM (cancer cells; Colon adenocarcinoma) of the same compound?
Its viability at 20 µM is 83%.

And the viability at 10 µM (cancer cells; Colorectal cancer)?
The viability at 10 µM was 91%.

And the viability at 20 µM (cancer cells; Colorectal cancer)?
The viability at 20 µM was 88%.

And the viability at 10 µM (cancer cells; Gastric cancer)?
The viability at 10 µM was 88%.

What about the viability at 20 µM (cancer cells; Gastric cancer) of the same compound?
Its viability at 20 µM is 81%.

What about the viability at 10 µM (cancer cells; Gastrointestinal tumor) of the same compound?
Its viability at 10 µM is 87%.

And the viability at 20 µM (cancer cells; Gastrointestinal tumor)?
Its viability at 20 µM is 83%.

And the viability at 10 µM (cancer cells; Glioma)?
Its viability at 10 µM is 91%.

What about the viability at 20 µM (cancer cells; Glioma) of the same compound?
Its viability at 20 µM is 88%.

What about the viability at 10 µM (cancer cells; [4]) of the same compound?
Its viability at 10 µM is 88%.

And the viability at 20 µM (cancer cells; [4])?
The viability at 20 µM was 85%.

And the viability at 10 µM (cancer cells; Laryngeal cancer)?
Its viability at 10 µM is 93%.

And the viability at 20 µM (cancer cells; Laryngeal cancer)?
The viability at 20 µM was 86%.

What about the viability at 10 µM (cancer cells; Liver cancer) of the same compound?
Its viability at 10 µM is 92%.

What about the viability at 20 µM (cancer cells; Liver cancer) of the same compound?
The viability at 20 µM was 89%.

And the viability at 10 µM (cancer cells; Lung adenocarcinoma)?
Its viability at 10 µM is 91%.

And the viability at 20 µM (cancer cells; Lung adenocarcinoma)?
Its viability at 20 µM is 89%.

And the viability at 10 µM (cancer cells; Lung cancer)?
Its viability at 10 µM is 94%.

And the viability at 20 µM (cancer cells; Lung cancer)?
Its viability at 20 µM is 87%.

What about the viability at 10 µM (cancer cells; Malignant melanoma) of the same compound?
Its viability at 10 µM is 91%.

And the viability at 20 µM (cancer cells; Malignant melanoma)?
Its viability at 20 µM is 87%.

And the viability at 10 µM (cancer cells; Nasopharynx cancer)?
The viability at 10 µM was 88%.

What about the viability at 20 µM (cancer cells; Nasopharynx cancer) of the same compound?
Its viability at 20 µM is 85%.

What about the viability at 10 µM (cancer cells; Ovarian cancer) of the same compound?
Its viability at 10 µM is 91%.

And the viability at 20 µM (cancer cells; Ovarian cancer)?
The viability at 20 µM was 89%.

And the viability at 10 µM (cancer cells; Pancreatic cancer)?
Its viability at 10 µM is 88%.

What about the viability at 20 µM (cancer cells; Pancreatic cancer) of the same compound?
The viability at 20 µM was 89%.

And the viability at 10 µM (cancer cells; Prostate cancer)?
The viability at 10 µM was 93%.

And the viability at 20 µM (cancer cells; Prostate cancer)?
The viability at 20 µM was 86%.

What about the viability at 10 µM (cancer cells; Retinoblastoma) of the same compound?
Its viability at 10 µM is 92%.

And the viability at 20 µM (cancer cells; Retinoblastoma)?
The viability at 20 µM was 89%.

And the viability at 10 µM (cancer cells; Skin cancer)?
Its viability at 10 µM is 91%.

And the viability at 20 µM (cancer cells; Skin cancer)?
Its viability at 20 µM is 87%.

And the “Content of TNF-α in culture supernatant of synoviocyte (x ± s)” value [2]?
The value was 0.66 ± 0.046 ng/mL.

And the viability at 10 µM (cancer stem cells; AML)?
Its viability at 10 µM is 84%.

And the viability at 20 µM (cancer stem cells; AML)?
Its viability at 20 µM is 78%.

What about the viability at 10 µM (cancer stem cells; Brain glioma) of the same compound?
The viability at 10 µM was 82%.

What about the viability at 20 µM (cancer stem cells; Brain glioma) of the same compound?
The viability at 20 µM was 76%.

And the viability at 10 µM (cancer stem cells; Brain tumor)?
The viability at 10 µM was 87%.

And the viability at 20 µM (cancer stem cells; Brain tumor)?
The viability at 20 µM was 76%.

And the viability at 10 µM (cancer stem cells; Breast cancer)?
Its viability at 10 µM is 79%.

What about the viability at 20 µM (cancer stem cells; Breast cancer) of the same compound?
Its viability at 20 µM is 72%.

What about the viability at 10 µM (cancer stem cells; CLL) of the same compound?
The viability at 10 µM was 85%.

And the viability at 20 µM (cancer stem cells; CLL)?
The viability at 20 µM was 79%.

What about the viability at 10 µM (cancer stem cells; CML) of the same compound?
Its viability at 10 µM is 81%.

And the viability at 20 µM (cancer stem cells; CML)?
Its viability at 20 µM is 75%.

And the viability at 10 µM (cancer stem cells; Children hepatoblastoma)?
The viability at 10 µM was 85%.

What about the viability at 20 µM (cancer stem cells; Children hepatoblastoma) of the same compound?
Its viability at 20 µM is 77%.

And the viability at 10 µM (cancer stem cells; Colon adenocarcinoma)?
The viability at 10 µM was 81%.

And the viability at 20 µM (cancer stem cells; Colon adenocarcinoma)?
Its viability at 20 µM is 75%.

And the viability at 10 µM (cancer stem cells; Colorectal cancer)?
The viability at 10 µM was 84%.

And the viability at 20 µM (cancer stem cells; Colorectal cancer)?
The viability at 20 µM was 78%.

And the viability at 10 µM (cancer stem cells; Gastric cancer)?
The viability at 10 µM was 79%.

And the viability at 20 µM (cancer stem cells; Gastric cancer)?
The viability at 20 µM was 72%.

What about the viability at 10 µM (cancer stem cells; Gastrointestinal tumor) of the same compound?
Its viability at 10 µM is 81%.

And the viability at 20 µM (cancer stem cells; Gastrointestinal tumor)?
Its viability at 20 µM is 75%.

And the viability at 10 µM (cancer stem cells; Glioma)?
Its viability at 10 µM is 84%.

What about the viability at 20 µM (cancer stem cells; Glioma) of the same compound?
The viability at 20 µM was 78%.

And the viability at 10 µM (cancer stem cells; [4])?
The viability at 10 µM was 82%.

What about the viability at 20 µM (cancer stem cells; [4]) of the same compound?
Its viability at 20 µM is 74%.

And the viability at 10 µM (cancer stem cells; Laryngeal cancer)?
Its viability at 10 µM is 85%.

And the viability at 20 µM (cancer stem cells; Laryngeal cancer)?
The viability at 20 µM was 79%.

What about the viability at 10 µM (cancer stem cells; Liver cancer) of the same compound?
Its viability at 10 µM is 85%.

What about the viability at 20 µM (cancer stem cells; Liver cancer) of the same compound?
Its viability at 20 µM is 77%.

And the viability at 10 µM (cancer stem cells; Lung adenocarcinoma)?
The viability at 10 µM was 88%.

What about the viability at 20 µM (cancer stem cells; Lung adenocarcinoma) of the same compound?
Its viability at 20 µM is 81%.

And the viability at 10 µM (cancer stem cells; Lung cancer)?
Its viability at 10 µM is 87%.

And the viability at 20 µM (cancer stem cells; Lung cancer)?
The viability at 20 µM was 76%.

And the viability at 10 µM (cancer stem cells; Malignant melanoma)?
The viability at 10 µM was 82%.

What about the viability at 20 µM (cancer stem cells; Malignant melanoma) of the same compound?
Its viability at 20 µM is 73%.

And the viability at 10 µM (cancer stem cells; Nasopharynx cancer)?
The viability at 10 µM was 85%.

What about the viability at 20 µM (cancer stem cells; Nasopharynx cancer) of the same compound?
The viability at 20 µM was 79%.

And the viability at 10 µM (cancer stem cells; Ovarian cancer)?
Its viability at 10 µM is 88%.

What about the viability at 20 µM (cancer stem cells; Ovarian cancer) of the same compound?
The viability at 20 µM was 81%.

And the viability at 10 µM (cancer stem cells; Pancreatic cancer)?
The viability at 10 µM was 82%.

And the viability at 20 µM (cancer stem cells; Pancreatic cancer)?
Its viability at 20 µM is 76%.

And the viability at 10 µM (cancer stem cells; Prostate cancer)?
Its viability at 10 µM is 85%.

What about the viability at 20 µM (cancer stem cells; Prostate cancer) of the same compound?
Its viability at 20 µM is 79%.

And the viability at 10 µM (cancer stem cells; Retinoblastoma)?
Its viability at 10 µM is 85%.

What about the viability at 20 µM (cancer stem cells; Retinoblastoma) of the same compound?
The viability at 20 µM was 77%.

And the viability at 10 µM (cancer stem cells; Skin cancer)?
The viability at 10 µM was 82%.

And the viability at 20 µM (cancer stem cells; Skin cancer)?
The viability at 20 µM was 73%.

What about the “Content of PGE2 in culture supernatant of synoviocyte (x ± s)” value [3] of the same compound?
The value was 27.64 ± 2.37 ng/mL.
